Inhibition and Activity data for two compounds are collected here from ChEMBL document CHEMBL3994585, “Synthesis of α-santonin derivatives for diminutive effect on T and B-cell proliferation and their structure activity relationships” (Eur J Med Chem, 2017).

The target of data set [1] is Tumor necrosis factor (Homo sapiens) (UniProt P01375). Briefly: Inhibition of TNFalpha (unknown origin) at 10 uM relative to control.
For data set [2] the target is unchanged. Briefly: Inhibition of TNFalpha (unknown origin) at 1 uM relative to control.
Data set [3] shares this target. Briefly: Inhibition of TNFalpha (unknown origin) at 5 uM relative to control.
Data set [4] has as its system T-cell. Briefly: Cytotoxicity against Balb/c mouse T cells assessed as reduction in cell proliferation at 100 uM after 48 hrs by MTT assay. The format is cell-based.
For data set [5], the system named is T-cell. Briefly: Immunosuppressive activity in Balb/c mouse T cells assessed as ConA-induced cell proliferation at 10 uM after 48 hrs by MTT assay relative to control. In kind it is functional. Background: Formazan colour is commonly taken as a measure of viable cells.
Data set [6] has as its system B-cell. Briefly: Immunosuppressive activity in Balb/c mouse B cells assessed as LPS-induced cell proliferation at 1 uM after 48 hrs by MTT assay relative to control. The format is functional.
The subject of data set [7] is B-cell. Briefly: Cytotoxicity against Balb/c mouse B cells assessed as reduction in cell proliferation at 10 uM after 48 hrs by MTT assay. In kind it is cell-based.
The test system of data set [8] is T-cell. Briefly: Immunosuppressive activity in Balb/c mouse T cells assessed as ConA-induced cell proliferation at 100 uM after 48 hrs by MTT assay relative to control. In kind it is functional.
For data set [9], the system named is T-cell. Briefly: Immunosuppressive activity in Balb/c mouse T cells assessed as ConA-induced cell proliferation at 1 uM after 48 hrs by MTT assay relative to control. In kind it is functional.
The subject of data set [10] is B-cell. Briefly: Cytotoxicity against Balb/c mouse B cells assessed as reduction in cell proliferation at 1 uM after 48 hrs by MTT assay. In kind it is cell-based.
Data set [11] deals with B-cell. Briefly: Immunosuppressive activity in Balb/c mouse B cells assessed as LPS-induced cell proliferation at 10 uM after 48 hrs by MTT assay relative to control. The format is functional.
For data set [12], the target named is Tumor necrosis factor (Homo sapiens) (UniProt P01375). Briefly: Inhibition of TNFalpha (unknown origin) at 10 uM relative to dexamethasone.
The test system of data set [13] is B-cell. Briefly: Cytotoxicity against Balb/c mouse B cells assessed as reduction in cell proliferation at 100 uM after 48 hrs by MTT assay. The format is cell-based.
For data set [14], the system named is T-cell. Briefly: Cytotoxicity against Balb/c mouse T cells assessed as reduction in cell proliferation at 10 uM after 48 hrs by MTT assay. The format is cell-based.
Data set [15] has as its system B-cell. Briefly: Immunosuppressive activity in Balb/c mouse B cells assessed as LPS-induced cell proliferation at 100 uM after 48 hrs by MTT assay relative to control. In kind it is functional.
Data set [16] has as its system T-cell. Briefly: Cytotoxicity against Balb/c mouse T cells assessed as reduction in cell proliferation at 1 uM after 48 hrs by MTT assay. In kind it is cell-based.
The subject of data set [17] is B-cell. Briefly: Effect on LPS-induced Balb/c mouse B cell proliferation at 100 uM after 48 hrs by MTT assay relative to control. In kind it is functional.
For data set [18], the system named is T-cell. Briefly: Immunostimulant activity in Balb/c mouse T cells assessed as ConA-induced cell proliferation at 100 uM after 48 hrs by MTT assay relative to control. The format is ADME, cell-based.
In data set [19] the test system is T-cell. Briefly: Immunostimulant activity in Balb/c mouse T cells assessed as ConA-induced cell proliferation at 1 uM after 48 hrs by MTT assay relative to control. The format is ADME, cell-based.

By inhibition is commonly meant the relative decrease from the control value, in per cent.

Chain of Tumor necrosis factor (Homo sapiens) (P01375 whole entry): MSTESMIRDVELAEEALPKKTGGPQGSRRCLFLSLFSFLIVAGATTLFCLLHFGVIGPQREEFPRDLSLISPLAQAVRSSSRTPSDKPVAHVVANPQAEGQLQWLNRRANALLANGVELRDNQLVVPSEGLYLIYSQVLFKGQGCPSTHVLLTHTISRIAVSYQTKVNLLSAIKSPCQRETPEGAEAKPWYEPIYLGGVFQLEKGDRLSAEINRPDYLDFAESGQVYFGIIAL

Take `CC(=O)Oc1cc(C)c2c(c1C)C1OC(OC(C)=O)C(C)C1CC2` (stereo not drawn): the inhibition in data set [1] is 26%; in [2] it was 0.34%; in data set [3] it was 9.9%; in [12] it was 50%. Besides, the Activity entry in data set [4] is “Toxic”; in data set [5], -26.47%; in [6] it was -50%; in data set [7], “Toxic”; in data set [8], -43.38%; in data set [9] it was -38.23%. The Activity entry is given as “Toxic” in [10]; -28.02% in data set [11]; “Toxic” in data set [13]; “Toxic” in data set [14]; -45.05% in data set [15]; “Toxic” in data set [16].

For the compound `Cc1c(O)c([N+](=O)[O-])c(C)c2c1[C@@H]1OC(=O)[C@@H](C)[C@@H]1CC2`, the Activity in [17] was 0%; in [4], “Toxic”; in data set [18], 36.08%; in [5] it was -1.03%; in data set [6] it was -10.61%; in data set [7], “Toxic”. Further, the Activity in data set [19] is on record as 13.4%; in [10], “Toxic”; in [11], -30.08%; in data set [13], “Toxic”; in [14] it was “Toxic”; in [16], “Toxic”.
